Paper PMC10285648, “iTAG an optimized IMiD-induced degron for targeted protein degradation in human and murine cells” (iScience, 2023)

What was measured:
[1] = system: HMEC, HEK293T, MDA-MB-231, Kelly cells; test: Cell viability assay (CellTiter-Blue); assay type: cell-based, human; conditions: 5 days treatment
Procedure: By endpoint, CellTiter-Blue reagent (Promega) was added to each well, incubated for 3 h at 37°C and absorbance was measured with a plate reader at 570nm. Average background absorbance value was subtracted from all readings when plotting the viability curve.

cMYC-EGFP-DCD19 = test: Flow cytometry of EGFP signal, cMYC-EGFP-DCD19 in HMEC; assay type: cell-based, human; conditions: 10uM, 4h
Text: (§1) To systematically delineate the optimal DCD/degrader combination for targeted protein degradation, we undertook a matrix approach evaluating all 23 DCD tags against 6 small molecule degraders. […] To control for any potential off-target effects of the IMiD/CeLMOD agents that could indirectly affect the target of interest, we designed controls in which the specific DCD and the EGFP sequences were interspaced by a P2A ribosomal “skipping” sequence,[32] leading to separate translation of the DCD and the target protein (Figure 1A). These constructs were then inserted into a doxycycline-inducible lentiviral vector system and stably expressed in hTERT immortalized human mammary epithelial cells (HMEC), a suitable model to assess the functional consequences of cMYC degradation. cMYC was tagged at the C-terminus end for the initial screening experiments.
(§2) Figure 1 Design and experimental evaluation of the DCD tags (A) Representation of the experimental pipeline used to evaluate the different DCD constructs. […] Median EGFP intensity was measured in each condition using flow cytometry (3 independent experiments, normalized to the control and represented as mean ± SD). […] The protein lysates were probed for cMYC levels using western blotting. […] Target loss was evaluated either by measuring EGFP median intensity using flow cytometry or western blotting for cMYC protein (3 independent experiments, normalized to the control and represented as mean ± SD). […] Target loss was evaluated as in (D) (3 independent experiments, normalized to the control and represented as mean ± SD). […] Protein lysates were collected and probed for cMYC and p21 using western blotting. […] Protein lysates were collected and probed for cMYC and p21 using western blotting. […] These were left out as controls with no test substance.
(§3) Following degrader treatment cells were collected and DAPI was added to the cell suspension at 1 μg/mL to allow the exclusion of dead cells. EGFP signal was measured using BD LSR II flow cytometer (BD Biosciences). FlowJo 10 Software (FlowJo) was used for data processing.

cMYC-EGFP-DCD23 = test: Degradation of cMYC-EGFP-DCD23 in HMEC (flow cytometry, western blotting); assay type: cell-based, human; conditions: EGFP cellular degradation data for the DCD23, related to Figure 1 (10uM, 4h)
Text: as §1, §2, §3
Cells were lysed with SDS lysis buffer (2% SDS, 10% Glycerol, 50mM Tris pH 6.8) and boiled at 95°C for 30min. Protein concentration was measured using Pierce BCA Protein Assay Kit (ThermoFischer) following manufacturer’s recommendations. Samples were ran in NuPAGETM 10% Bis-Tris Midi electrophoresis gels (Invitrogen) using NuPAGETM MES SDS running buffer (ThermoFischer Scientific).
For western blotting membranes were blocked in a solution of 5% (w/v) bovine serum albumin (BSA; Sigma-Aldrich) dissolved in TBS-0.1% Tween 20 (Sigma-Aldrich) then incubated at 4°C overnight with the primary antibodies diluted in 5% (w/v) BSA/TBS-T. The membranes where then washed and incubated with anti-mouse and/or anti-rabbit secondary antibodies (LI-COR Biosciences) for 2h at RT diluted in 5% (w/v) BSA/TBS-T then washed and imaged using the LI-COR Odyssey (LI-COR Biosciences). Images were analyzed using Image Studio Lite software (LI-COR Biosciences).

cMYC-EGFP-DCD2 = test: Flow cytometry of EGFP signal, cMYC-EGFP-DCD2 in HMEC; assay type: cell-based, human; conditions: 10uM, 4h
Text: To systematically delineate the optimal DCD/degrader combination for targeted protein degradation, we undertook a matrix approach evaluating all 23 DCD tags against 6 small molecule degraders. First, we fused the DCD tags with Enhanced Green Fluorescent Protein (EGFP) and a target protein of interest, focusing initially on the proto-oncogene cMYC (Figure 1A). cMYC function has been extensively studied and downstream perturbations of cMYC loss are well characterised,[29]^,[30]^,[31] providing a good reference to test the iTAG system. […]
Figure 1 Design and experimental evaluation of the DCD tags (A) Representation of the experimental pipeline used to evaluate the different DCD constructs. […] Median EGFP intensity was measured in each condition using flow cytometry (3 independent experiments, normalized to the control and represented as mean ± SD). […] Target loss was evaluated either by measuring EGFP median intensity using flow cytometry or western blotting for cMYC protein (3 independent experiments, normalized to the control and represented as mean ± SD). […] Target loss was evaluated as in (D) (3 independent experiments, normalized to the control and represented as mean ± SD). […]

CRBN/DDB1 complex = biological target: T1, CRBN/DDB1 complex (Homo sapiens, UniProt Q96SW2); test: IMiD-based fluorescence polarisation assay; assay type: binding; conditions: displacement of Sulfo-Cy5 IMiD probe (5 nM), 80 nM CRBN/DDB1; read-out: FP IC50
T1 construct: WT full length CRBN/DDB1 complex was added; made in house; host or cells: Sf9 insect cells (baculovirus)
T1 sequence (Q96SW2 whole entry): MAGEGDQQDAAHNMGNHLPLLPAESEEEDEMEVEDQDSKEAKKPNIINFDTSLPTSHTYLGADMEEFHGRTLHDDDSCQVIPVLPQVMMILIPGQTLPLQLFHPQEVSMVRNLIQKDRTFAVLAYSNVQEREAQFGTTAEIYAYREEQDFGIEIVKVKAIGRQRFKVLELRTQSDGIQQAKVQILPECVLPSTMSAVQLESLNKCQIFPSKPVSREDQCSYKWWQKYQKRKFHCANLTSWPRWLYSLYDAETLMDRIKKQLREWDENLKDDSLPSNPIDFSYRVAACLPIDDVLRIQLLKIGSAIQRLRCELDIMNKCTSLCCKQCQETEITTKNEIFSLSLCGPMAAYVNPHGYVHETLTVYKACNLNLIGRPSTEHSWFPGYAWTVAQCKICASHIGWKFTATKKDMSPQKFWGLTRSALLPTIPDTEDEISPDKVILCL
T1 sequence (Q16531 whole entry partner): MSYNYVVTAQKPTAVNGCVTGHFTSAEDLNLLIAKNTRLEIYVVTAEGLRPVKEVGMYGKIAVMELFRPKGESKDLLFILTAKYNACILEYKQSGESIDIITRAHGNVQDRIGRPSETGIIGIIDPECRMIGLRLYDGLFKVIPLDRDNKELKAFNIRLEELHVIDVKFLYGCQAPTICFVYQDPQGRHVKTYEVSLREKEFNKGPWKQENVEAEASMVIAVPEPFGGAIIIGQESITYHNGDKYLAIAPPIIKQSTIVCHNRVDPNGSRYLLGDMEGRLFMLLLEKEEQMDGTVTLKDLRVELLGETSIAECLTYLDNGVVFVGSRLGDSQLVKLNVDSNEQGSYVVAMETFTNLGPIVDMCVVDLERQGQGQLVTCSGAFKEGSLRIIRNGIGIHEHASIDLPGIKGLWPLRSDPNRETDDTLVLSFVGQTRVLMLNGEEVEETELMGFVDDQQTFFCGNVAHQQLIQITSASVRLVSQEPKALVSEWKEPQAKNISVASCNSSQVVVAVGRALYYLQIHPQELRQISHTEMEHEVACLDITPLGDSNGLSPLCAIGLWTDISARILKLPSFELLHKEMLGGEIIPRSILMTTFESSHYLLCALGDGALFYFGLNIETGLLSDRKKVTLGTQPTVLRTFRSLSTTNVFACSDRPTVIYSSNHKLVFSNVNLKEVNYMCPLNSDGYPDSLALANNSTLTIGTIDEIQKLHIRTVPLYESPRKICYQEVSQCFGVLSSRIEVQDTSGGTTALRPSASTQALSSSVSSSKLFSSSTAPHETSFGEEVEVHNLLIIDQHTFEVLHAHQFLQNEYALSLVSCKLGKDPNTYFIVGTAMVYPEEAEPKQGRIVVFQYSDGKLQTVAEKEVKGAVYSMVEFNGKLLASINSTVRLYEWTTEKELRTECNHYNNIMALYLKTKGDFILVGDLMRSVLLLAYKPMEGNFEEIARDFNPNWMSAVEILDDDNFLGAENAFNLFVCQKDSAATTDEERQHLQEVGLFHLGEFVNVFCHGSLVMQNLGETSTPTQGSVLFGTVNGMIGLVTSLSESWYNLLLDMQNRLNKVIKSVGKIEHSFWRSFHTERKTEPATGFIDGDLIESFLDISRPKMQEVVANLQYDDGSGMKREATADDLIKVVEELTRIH
Procedure: First, we wanted to confirm that the IMiD/CELMoDs used in our study were effectively binding to CRBN and to estimate their binding affinities. […] WT full length CRBN/DDB1 complex was added with a Tempest liquid handler (Formulatrix, USA) to all wells to a final concentration of 80 nM, except for low controls where WT CRBN was substituted with mutant [MUT]-[MUT] CRBN (mutant unable to bind the probe). The Echo was also used to add 5 nM final concentration of Sulfo-Cy5 fluorescent IMiD-based probe (Figure S6A) to each well. Plates were sealed, centrifuged at 200 g for 1 min and stored overnight at 4°C. Fluorescence Polarization and total fluorescence were read using a PHERAstar FSX plate reader (BMG Labtech, Germany).

## Cc1ccc(NC(=O)NCc2ccc3c(c2)CN(C2CCC(=O)NC2=O)C3=O)cc1Cl (centres unmarked) [CC885]
[1]
  cellular toxicity: significant cellular toxicity
cMYC-EGFP-DCD19
  loss of cMYC-EGFP signal: robust loss of cMYC-EGFP signal
cMYC-EGFP-DCD23
  Degradation as Log2 FC relative to DMSO: -1.27 Log2 FC
cMYC-EGFP-DCD2
  change of EGFP signal: strong decrease in EGFP signal
CRBN/DDB1 complex
  IC50: 107 nM
